Data taken from ChEMBL document CHEMBL3351912, “Influence of azide incorporation on binding affinity by small papain inhibitors” (Bioorg Med Chem, 2014).

Each compound was assayed against T1, Papain (Carica papaya, UniProt P00784) (assay: Inhibition of papaya papain using Z-Phe-Arg-pNA substrate by spectrophotometry).
T1 sequence (P00784 whole entry): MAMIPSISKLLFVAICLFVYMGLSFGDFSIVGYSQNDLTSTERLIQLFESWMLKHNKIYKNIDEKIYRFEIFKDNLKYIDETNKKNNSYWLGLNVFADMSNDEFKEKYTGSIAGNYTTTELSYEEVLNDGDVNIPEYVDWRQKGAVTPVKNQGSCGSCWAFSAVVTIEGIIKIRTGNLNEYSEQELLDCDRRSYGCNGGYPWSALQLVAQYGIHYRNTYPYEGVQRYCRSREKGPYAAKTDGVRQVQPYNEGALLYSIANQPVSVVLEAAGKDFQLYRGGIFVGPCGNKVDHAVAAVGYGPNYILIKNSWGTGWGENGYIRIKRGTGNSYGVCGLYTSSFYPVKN

Row | IC50 [µM] | Structure (SMILES)
1 | 0.22 | N#CCNC(=O)[C@H](Cc1ccccc1)NC(=O)c1ccc(-c2ccccc2)cc1
2 | 2.27 | CC(C)C[C@H](NC(=O)c1ccc(CN=[N+]=[N-])cc1)C(=O)NCC#N
3 | 7.1 | CCCC[C@H](NC(=O)c1ccc(CN=[N+]=[N-])cc1)C(=O)NCC#N
4 | 0.27 | N#CCNC(=O)[C@H](Cc1ccccc1)NC(=O)c1ccc(CN=[N+]=[N-])cc1
5 | 0.28 | N#CCNC(=O)[C@H](Cc1ccc(O)cc1)NC(=O)c1ccc(CN=[N+]=[N-])cc1
6 | 0.71 | N#CCNC(=O)[C@H](CCc1ccccc1)NC(=O)c1ccc(CN=[N+]=[N-])cc1
7 | 0.98 | N#CCNC(=O)[C@H](CCc1ccc(O)cc1)NC(=O)c1ccc(CN=[N+]=[N-])cc1
8 | 1.58 | CC(C)C[C@H](NC(=O)c1ccc(-c2ccc(CN=[N+]=[N-])cc2)cc1)C(=O)NCC#N
9 | 13.9 | N#CCNC(=O)[C@H](Cc1ccccc1)NC(=O)c1ccc(-c2ccc(CN=[N+]=[N-])cc2)cc1
10 | 51.2 | N#CCNC(=O)[C@H](Cc1ccc(O)cc1)NC(=O)c1ccc(-c2ccc(CN=[N+]=[N-])cc2)cc1
11 | 2.71 | CC(C)C[C@H](NC(=O)CN=[N+]=[N-])C(=O)N[C@@H](CC(C)C)C(=O)NCC#N
12 | 2.25 | CC(C)C[C@H](NC(=O)CN=[N+]=[N-])C(=O)N[C@@H](Cc1ccccc1)C(=O)NCC#N
13 | 3.97 | N#CCNC(=O)[C@H](Cc1ccccc1)NC(=O)[C@H](Cc1ccccc1)NC(=O)CN=[N+]=[N-]
14 | 0.35 | N#CCNC(=O)[C@H](Cc1ccccc1)NC(=O)c1ccc(Cn2nnc3c2CC[C@H]2[C@@H](CC3)[C@H]2COC(=O)NCCOCCOCCN)cc1
15 | 5.98 | N#CCNC(=O)[C@H](Cc1ccccc1)NC(=O)c1ccc(Cn2nnc3c2-c2ccccc2CN(C(=O)CCCC(=O)NCCOCCOCCN)c2ccccc2-3)cc1
16 | 0.36 | N#CCNC(=O)[C@H](Cc1ccccc1)NC(=O)c1ccccc1
